Data on two compounds can be found in the NIST ThermoML archive (doi:10.1021/je7003337).

Structures are written as SMILES. Numbers after ± are expanded uncertainties.

The series is described as follows: refractive index (Na D-line) (dimensionless). To be noted: 298.15 K; 101.33 kPa; Liquid; Standard Abbe refractometry.

Consider `Cc1ccc(C)cc1` [1,4-dimethylbenzene], for which the refractive index was 1.49321 ± 0.00072.

As to `CCCCCC` [hexane], the refractive index is 1.37226 ± 0.00072.
